# Experimental data reported in PMC10997755, “Discovery of a small-molecule inhibitor that traps Polθ on DNA and synergizes with PARP inhibitors” (Nature Communications, 2024).
# Values joined by “and” are separate entries in the source; they are usually repeats but may differ in a detail not shown here. Equal values may be shown once.
# Legend:
# [1] = target: T1, Fl-Polθ:DNA/DNA complex (Homo sapiens, UniProt O75417); experiment: EcoRI endonuclease protection assay; assay type: biochemical;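 for i+1 (%) (15 nt), replicates #1-#3: i+1 is one-nucleotide extended DNA within post-catalytic complexes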
# T1 construct: recombinant human full-length Polθ (Fl-Polθ); made in house
# T1 sequence (O75417 whole entry, one chain of several): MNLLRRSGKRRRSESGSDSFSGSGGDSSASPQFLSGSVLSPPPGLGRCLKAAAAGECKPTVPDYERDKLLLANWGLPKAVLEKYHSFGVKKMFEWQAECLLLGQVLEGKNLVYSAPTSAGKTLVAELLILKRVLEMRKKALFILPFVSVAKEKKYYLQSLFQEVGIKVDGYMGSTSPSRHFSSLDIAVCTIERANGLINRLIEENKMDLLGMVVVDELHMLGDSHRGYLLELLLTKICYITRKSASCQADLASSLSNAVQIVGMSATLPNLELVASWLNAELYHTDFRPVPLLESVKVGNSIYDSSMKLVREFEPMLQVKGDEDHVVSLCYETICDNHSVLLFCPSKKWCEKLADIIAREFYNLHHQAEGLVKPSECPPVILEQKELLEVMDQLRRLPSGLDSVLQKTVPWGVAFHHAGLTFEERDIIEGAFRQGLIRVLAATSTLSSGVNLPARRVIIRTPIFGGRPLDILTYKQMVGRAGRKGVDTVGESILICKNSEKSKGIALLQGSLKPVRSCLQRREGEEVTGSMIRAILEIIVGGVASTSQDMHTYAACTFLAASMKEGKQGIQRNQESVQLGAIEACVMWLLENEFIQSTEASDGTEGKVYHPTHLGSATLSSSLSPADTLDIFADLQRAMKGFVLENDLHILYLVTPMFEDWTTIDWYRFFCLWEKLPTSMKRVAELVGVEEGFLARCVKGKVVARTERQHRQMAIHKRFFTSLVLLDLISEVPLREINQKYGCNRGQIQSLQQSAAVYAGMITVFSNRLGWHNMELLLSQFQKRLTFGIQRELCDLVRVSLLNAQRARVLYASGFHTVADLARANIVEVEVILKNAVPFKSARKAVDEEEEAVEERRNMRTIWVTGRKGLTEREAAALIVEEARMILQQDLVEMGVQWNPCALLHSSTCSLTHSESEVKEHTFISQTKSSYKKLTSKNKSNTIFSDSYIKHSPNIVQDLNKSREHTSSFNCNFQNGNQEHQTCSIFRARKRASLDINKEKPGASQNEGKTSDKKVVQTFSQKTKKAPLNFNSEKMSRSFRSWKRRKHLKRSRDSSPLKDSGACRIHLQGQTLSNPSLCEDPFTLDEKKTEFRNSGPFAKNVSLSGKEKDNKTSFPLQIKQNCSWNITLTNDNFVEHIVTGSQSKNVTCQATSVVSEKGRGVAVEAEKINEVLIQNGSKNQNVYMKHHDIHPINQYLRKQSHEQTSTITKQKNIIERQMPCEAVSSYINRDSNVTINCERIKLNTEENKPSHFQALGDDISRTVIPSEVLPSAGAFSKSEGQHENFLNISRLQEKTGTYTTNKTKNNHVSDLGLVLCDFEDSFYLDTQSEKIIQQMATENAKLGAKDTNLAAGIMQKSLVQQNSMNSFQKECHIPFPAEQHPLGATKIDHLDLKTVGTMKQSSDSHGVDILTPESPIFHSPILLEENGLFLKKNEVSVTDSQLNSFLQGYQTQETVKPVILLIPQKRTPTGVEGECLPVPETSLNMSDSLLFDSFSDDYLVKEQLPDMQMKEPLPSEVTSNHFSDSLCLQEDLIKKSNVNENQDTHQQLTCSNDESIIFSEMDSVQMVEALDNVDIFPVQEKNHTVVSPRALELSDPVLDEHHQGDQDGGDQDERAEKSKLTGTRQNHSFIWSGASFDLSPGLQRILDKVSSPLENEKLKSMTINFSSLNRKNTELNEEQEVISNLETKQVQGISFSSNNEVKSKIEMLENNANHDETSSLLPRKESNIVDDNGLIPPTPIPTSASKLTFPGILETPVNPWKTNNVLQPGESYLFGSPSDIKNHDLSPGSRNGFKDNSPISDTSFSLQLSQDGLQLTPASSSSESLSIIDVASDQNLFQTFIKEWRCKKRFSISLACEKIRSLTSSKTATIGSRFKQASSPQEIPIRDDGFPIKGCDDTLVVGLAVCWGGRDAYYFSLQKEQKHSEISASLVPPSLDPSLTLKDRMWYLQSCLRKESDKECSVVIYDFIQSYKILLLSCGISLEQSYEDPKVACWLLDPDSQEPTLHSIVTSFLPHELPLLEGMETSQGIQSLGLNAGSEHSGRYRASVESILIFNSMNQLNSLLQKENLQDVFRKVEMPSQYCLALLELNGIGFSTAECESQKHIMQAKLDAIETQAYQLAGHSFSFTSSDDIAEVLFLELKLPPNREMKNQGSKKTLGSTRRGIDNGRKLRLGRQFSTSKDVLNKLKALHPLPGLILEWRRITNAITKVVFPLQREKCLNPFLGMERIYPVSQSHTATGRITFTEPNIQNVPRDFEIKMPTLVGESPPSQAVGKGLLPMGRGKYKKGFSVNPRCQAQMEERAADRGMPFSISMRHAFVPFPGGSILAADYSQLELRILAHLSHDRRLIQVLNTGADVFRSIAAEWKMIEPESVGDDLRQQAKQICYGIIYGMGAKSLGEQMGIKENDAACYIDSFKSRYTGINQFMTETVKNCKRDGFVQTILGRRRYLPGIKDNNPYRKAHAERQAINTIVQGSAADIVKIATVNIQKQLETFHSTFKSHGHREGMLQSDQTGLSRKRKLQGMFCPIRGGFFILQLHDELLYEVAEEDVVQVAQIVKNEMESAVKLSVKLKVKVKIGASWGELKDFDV
# Experimental: (§1) EcoRI and KpnI endonucleases assay: 25 nM 5’-^32P radiolabeled primer-template DNA Sc15-EcoRI (5’-^32P LM3-EcoRI/LM4-EcoRI) or Sc19-KpnI (5’-^32P LM11-Kpn/LM12-Kpn) in reaction buffer (25 mM Tris-HCl pH 7.5, 10 mM MgCl2, 10% glycerol, 0.1 mg/mL BSA, 0,01% igepal, 1 mM DTT) were incubated in the presence or in the absence of 50 nM Polθ-pol, 100 μM ddCTP, and 10 μM inhibitors, as indicated, for 5 min at room temperature. Next, 0.08 U/μL EcoRI or KpnI together with 500 nM “trapping” DNA Sc14 (RP559/RP702) were added and incubated for further 0–40 min at 30 °C as indicated. 10 nM PolθΔcen and FL-Polθ and 25 nM Sc15-EcoRI and Sc19-Kpn were probed with 0.04 U/μL EcoRI or KpnI (both from New England Biolabs) using the same conditions. Reactions were stopped by addition of formamide loading buffer with 50 mM EDTA, resolved in denaturing 20% urea PAAG and analyzed using Typhoon PhosphorImager (GE Amersham). Quantification was done in ImageQuant TL software. All quantified experiments were performed in triplicates and plotted as mean with ± s.d using GraphPad Prism 9 software.
# [2] = system: PolθΔcen:DNA/DNA complex; experiment: EcoRI endonuclease protection assay; assay type: biochemical; conditions: for i (%), normalized to 100%, ave(%) / i (%), replicates: 14 nt i; for i+1 (%) normalized to 100%, ave(%) / i+1 (%), replicates: 15 nt i+1;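 for i (%), replicates: i is primer-template DNA within pre-catalytic complexes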;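 for i+1 (%), replicates: i+1 is one-nucleotide extended DNA within post-catalytic complexes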
# Experimental: as §1
# [3] = system: DLD1 Parental cells; experiment: Apoptosis assay (FITC active caspase-3); assay type: cell-based; design: FITC- AVG / FITC+ AVG: unit not given here; conditions: for FITC+ AVG / FITC- AVG: DLD1 Parental
# Experimental: DLD1 BRCA2 -/-, DLD1 Parental cells were plated on six well plates and treated with RTX-161 1 day after plating. Medium was replaced every 2 days with RTX-161. Cells were harvested 6 days after plating for apoptosis assay using FITC active caspase-3 apoptosis kit (BD biosciences, catalog # 550480) according to manufacturer’s instructions and analyzed by FACS with Celesta (Becton Dickinson).
# [4] = Colony survival, ola with or without RTX-161 (source data sheet Fig. 2 b; cell line not given); assay type: cell-based
# [5] = system: Polα; experiment: Primer extension by recombinant Pols (selectivity); assay type: biochemical
# [6] = system: DLD1 BRCA2 -/- cells; experiment: Western blot γ-H2AX phosphorylation and PARP cleavage; assay type: cell-based; conditions: versus parental
# Experimental: Cells were harvested using—cell scraper and washed in phosphate-buffered saline (PBS), then lysed in 1 x RIPA Lysis and Extraction Buffer (Thermo Scientific #89901) containing Halt™ Protease and Phosphatase Inhibitor Cocktail (Thermo Scientific #1861281). Protein concentration was measured using Pierce™ BCA Protein Assay Kit (Thermo Scientific #23225). The proteins were separated by electrophoresis using 4–20% Mini-PROTEAN® TGX™ Precast Protein Gels (Bio-Rad #4561096) and transferred to Immuno Blot PVDF Membrane (Bio-Rad #1620177). Membranes were blocked using 5%-milk-TBST (or 5%-BSA-TBST for phospho-proteins) for 1 h at room temperature and washed with TBST prior to antibody incubation. Primary antibodies were incubated overnight at 4 °C in 1%-milk-TBST (or 2%-BSA-TBST for phospho-proteins). γ-H2AX (p Ser139) was detected using antibody (NOVUS #NB100-384) diluted 1:2000. Cleaved PARP was detected using antibody (Cell Signaling #9546) diluted 1:2000. Gapdh was detected using Gapdh (14C10) rabbit monoclonal antibody (Cell Signaling Technology #2118) diluted 1:4000. Membranes were washed with TBST prior to secondary antibody incubation for 1 h at room temperature using respective Goat anti-Rabbit IgG (H + L) HRP (Invitrogen #31466) or Goat anti-Mouse IgG (H + L) HRP (Invitrogen #31430)–tagged Secondary Antibody diluted 1:5000 in 2%-milk-TBST. […]
# [7] = Eco+PolqDcen+ddC+RTx152, 2.5min
compound,measurement,setting,value
CN1CCN(c2cc(C(F)(F)F)cc(C(F)(F)F)c2OC(=O)N(C)c2ccc(F)cc2)C1=O [RTx-152],"EcoRI cleavage %, ave","[1]; Eco+FL+ddC+RTx152, 2.5min",15.4%
same,"EcoRI cleavage %, replicates #1-#3","[1]; Eco+FL+ddC+RTx152, 2.5min",16.1% and 15.5% and 14.7%
same,"EcoRI cleavage %, ave","[1]; Eco+FL+ddC+RTx152, 5min",27.7%
same,"EcoRI cleavage %, replicates #1-#3","[1]; Eco+FL+ddC+RTx152, 5min",28.7% and 27.4% and 27.0%
same,"EcoRI cleavage %, ave","[1]; Eco+FL+ddC+RTx152, 10min",38.7%
same,"EcoRI cleavage %, replicates #1-#3","[1]; Eco+FL+ddC+RTx152, 10min",39.6% and 39.0% and 37.5%
same,"i (%) (14 nt), replicates #1-#3","[1]; FL+ddC+152, 2.5min",45.9% and 45.3% and 45.1%
same,"i (%), normalized to 100%, ave(%)","[1]; FL+ddC+152, 2.5min",100.0%
same,"i+1 (%) (15 nt), replicates #1-#3","[1]; FL+ddC+152, 2.5min",24.5% and 25.2% and 24.4%
same,"i+1 (%) normalized to 100%, ave(%)","[1]; FL+ddC+152, 2.5min",100.0%
same,"i (%) (14 nt), replicates #1-#3","[1]; FL+ddC+152, 5min",32.7% and 32.3% and 32.8%
same,"i (%), normalized to 100%, ave(%)","[1]; FL+ddC+152, 5min",71.7%
same,"i+1 (%) (15 nt), replicates #1-#3","[1]; FL+ddC+152, 5min",24.7% and 27.0% and 24.6%
same,"i+1 (%) normalized to 100%, ave(%)","[1]; FL+ddC+152, 5min",103.0%
same,"i (%) (14 nt), replicates #1-#3","[1]; FL+ddC+152, 10min",19.6% and 20.0% and 17.7%
same,"i (%), normalized to 100%, ave(%)","[1]; FL+ddC+152, 10min",42.0%
same,"i+1 (%) (15 nt), replicates #1-#3","[1]; FL+ddC+152, 10min",27.5% and 27.2% and 25.6%
same,"i+1 (%) normalized to 100%, ave(%)","[1]; FL+ddC+152, 10min",108.3%
same,"post-catalytic complexes (i + 1), EcoRI cleavage",[1]; Fl-Polθ,fully resistant to EcoRI cleavage
same,"EcoRI cleavage %, ave",[2]; [7],9.7%
same,"EcoRI cleavage %, replicates",[2]; [7],11.0% and 8.0% and 10.0%
same,"EcoRI cleavage %, ave","[2]; Eco+PolqDcen+ddC+RTx152, 5min",14.0%
same,"EcoRI cleavage %, replicates","[2]; Eco+PolqDcen+ddC+RTx152, 5min",17.0% and 12.0% and 13.0%
same,"EcoRI cleavage %, ave","[2]; Eco+PolqDcen+ddC+RTx152, 10min",16.7%
same,"EcoRI cleavage %, replicates","[2]; Eco+PolqDcen+ddC+RTx152, 10min",21.0% and 14.0% and 15.0%
same,"i (%), normalized to 100%, ave(%)","[2]; PolqDcen+ddC+152, 2.5 min",100.0%
same,"i (%), replicates","[2]; PolqDcen+ddC+152, 2.5 min",50.3% and 44.4% and 42.8%
same,"i+1 (%) normalized to 100%, ave(%)","[2]; PolqDcen+ddC+152, 2.5 min",100.0%
same,"i+1 (%), replicates","[2]; PolqDcen+ddC+152, 2.5 min",20.4% and 24.4% and 22.1%
same,"i (%), normalized to 100%, ave(%)","[2]; PolqDcen+ddC+152, 5 min",86.1%
same,"i (%), replicates","[2]; PolqDcen+ddC+152, 5 min",40.2% and 38.5% and 39.7%
same,"i+1 (%) normalized to 100%, ave(%)","[2]; PolqDcen+ddC+152, 5 min",111.1%
same,"i+1 (%), replicates","[2]; PolqDcen+ddC+152, 5 min",23.8% (2×) and 26.6%
same,"i (%), normalized to 100%, ave(%)","[2]; PolqDcen+ddC+152, 10 min",66.5%
same,"i (%), replicates","[2]; PolqDcen+ddC+152, 10 min",33.3% and 25.6% and 32.6%
same,"i+1 (%) normalized to 100%, ave(%)","[2]; PolqDcen+ddC+152, 10 min",137.8%
same,"i+1 (%), replicates","[2]; PolqDcen+ddC+152, 10 min",25.8% and 38.6% and 27.7%
CN(C(=O)Oc1c(N2CCN(CCO)C2=O)cc(C(F)(F)F)cc1C(F)(F)F)c1ccc(F)cc1 [RTx-161],% population FITC Caspase-3 Negative,[3]; 10 uM RTX-161,99%
same,% population FITC Caspase-3 Negative,[3]; 20 uM RTX-161,99%
same,FITC+ AVG,"[3]; 10 uM, left block of sheet",1.067
same,FITC- AVG,"[3]; 10 uM, left block of sheet",98.9333
same,FITC+ AVG,"[3]; 10 uM, middle block of sheet",2.067
same,FITC- AVG,"[3]; 10 uM, middle block of sheet",98
same,FITC+ AVG,"[3]; 10 uM, right block of sheet",2.033
same,FITC- AVG,"[3]; 10 uM, right block of sheet",97.9667
same,FITC+ AVG,"[3]; 20 uM, left block of sheet",0.9333
same,FITC- AVG,"[3]; 20 uM, left block of sheet",99.0667
same,FITC+ AVG,"[3]; 20 uM, middle block of sheet",1.467
same,FITC- AVG,"[3]; 20 uM, middle block of sheet",98.6667
same,FITC+ AVG,"[3]; 20 uM, right block of sheet",1.567
same,FITC- AVG,"[3]; 20 uM, right block of sheet",98.7667
same,percent suvival,[4]; RTX-161 2.5 micro M + ola 11.8 nano M,48.7273%
same,percent suvival,[4]; RTX-161 2.5 micro M + ola 26.60 nano M,30.5455%
same,percent suvival,[4]; RTX-161 2.5 micro M + ola 60.00 nano M,18.9091%
same,percent suvival,"[4]; RTX-161 2.5 micro M, ola 0.00 nano M",75.7576% and 82.5581% and 83.6364%
same,percent suvival,[4]; RTX-161 5 micro M + ola 11.8 nano M,22.5455%
same,percent suvival,[4]; RTX-161 5 micro M + ola 26.60 nano M,14.9091%
same,percent suvival,[4]; RTX-161 5 micro M + ola 60.00 nano M,2.545%
same,percent suvival,"[4]; RTX-161 5 micro M, ola 0.00 nano M",46.9697% and 43.6047% and 70.9091%
same,percent suvival,[4]; RTX-161 10 micro M + ola 11.8 nano M,9.818%
same,percent suvival,[4]; RTX-161 10 micro M + ola 26.60 nano M,5.091%
same,percent suvival,[4]; RTX-161 10 micro M + ola 60.00 nano M,0.7273%
same,percent suvival,"[4]; RTX-161 10 micro M, ola 0.00 nano M",24.2424% and 34.8837% and 47.6364%
same,% Full Extension,[5]; Pol Alpha,84.67%
same,% Inhibition Compared to Control,[5]; Pol Alpha,-1.20%
same,% Relative Maximum Extension,[5]; Pol Alpha,101.20%
same,inhibition of primer extension,"[5]; selectivity panel, Pol named in Supplementary Fig. 1h",no inhibition
same,PARP cleavage,[6],selectively induced PARP cleavage
